{"source": "paper PMC11219871", "about": "“Epigenetic-based differentiation therapy for Acute Myeloid Leukemia” (Nature Communications, 2024)", "key": {"SIRT3": {"target": "T1, SIRT3 (Homo sapiens, UniProt Q9NTG7)", "T1 construct": "purchased BPS Bioscience; Eurofins (HDAC4, 5, 7-11)", "T1 sequence (Q9NTG7 whole entry)": "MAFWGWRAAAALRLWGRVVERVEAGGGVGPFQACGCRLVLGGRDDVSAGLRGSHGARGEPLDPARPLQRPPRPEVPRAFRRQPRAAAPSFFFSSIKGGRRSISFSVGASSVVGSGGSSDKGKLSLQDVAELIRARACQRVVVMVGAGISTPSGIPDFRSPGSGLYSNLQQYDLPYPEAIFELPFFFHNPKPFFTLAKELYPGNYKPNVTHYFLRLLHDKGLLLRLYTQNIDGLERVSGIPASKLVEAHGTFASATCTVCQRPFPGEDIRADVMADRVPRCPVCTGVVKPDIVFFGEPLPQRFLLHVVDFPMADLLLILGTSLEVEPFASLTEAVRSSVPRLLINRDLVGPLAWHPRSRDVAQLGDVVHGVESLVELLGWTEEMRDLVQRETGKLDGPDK", "test": "Epigenetic panel (BPS Bioscience)", "format": "biochemical", "outline": "(§1)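 Single-point screen: 10 μM compound, duplicate wells. Compounds: CM-444, CM-1758.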"}, "PRMT6": {"target": "T2, PRMT6 (Homo sapiens, UniProt Q96LA8)", "T2 construct": "purchased BPS Bioscience; Eurofins (HDAC4, 5, 7-11)", "T2 sequence (Q96LA8 whole entry)": "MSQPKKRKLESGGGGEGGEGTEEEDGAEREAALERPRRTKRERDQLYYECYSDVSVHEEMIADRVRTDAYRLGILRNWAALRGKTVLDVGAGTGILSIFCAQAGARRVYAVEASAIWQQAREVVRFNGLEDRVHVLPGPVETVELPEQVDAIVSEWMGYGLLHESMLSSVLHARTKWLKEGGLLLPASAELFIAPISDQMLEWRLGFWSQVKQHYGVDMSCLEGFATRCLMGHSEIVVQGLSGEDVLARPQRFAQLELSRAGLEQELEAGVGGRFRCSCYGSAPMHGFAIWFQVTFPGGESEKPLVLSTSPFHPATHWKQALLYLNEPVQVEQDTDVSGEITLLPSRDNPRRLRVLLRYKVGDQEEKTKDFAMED", "test": "Epigenetic panel (BPS Bioscience)", "format": "biochemical", "outline": "as §1"}}, "data": [{"smiles": "COc1cc2nc(-c3ccc(C)o3)cc(NCC3CCN(c4ncc(C(=O)NO)cn4)CC3)c2cc1OC", "note": "[CM-444, 2-[4-[[[6,7-dimethoxy-2-(5-methyl-2-furyl)-4-quinolyl]amino]methyl]-1-piperidyl]pyrimidine-5-carbohydroxamic acid]", "values": [{"measurement": "inhibition at 10 µM", "setting": "SIRT3", "result": 0, "unit": "%"}, {"measurement": "inhibition at 10 µM", "setting": "PRMT6", "result": 0, "unit": "%"}]}, {"smiles": "COc1cc2nc(-c3cc(C)oc3C)cc(NCC3CCN(c4ncc(C(=O)NO)cn4)CC3)c2cc1OC", "note": "[CM-1758, 2-[4-[[[2-(2,5-dimethyl-3-furyl)-6,7-dimethoxy-4-quinolyl]amino]methyl] -1-piperidyl]pyrimidine-5-carbohydroxamic acid]", "values": [{"measurement": "inhibition at 10 µM", "setting": "SIRT3", "result": 9, "unit": "%"}, {"measurement": "inhibition at 10 µM", "setting": "PRMT6", "result": 0, "unit": "%"}]}]}
